Laboratory results as given in PMC12087874, “Biaryl Phosphates and Phosphonates as Selective Inhibitors of the Transcription Factor STAT4” (Angewandte Chemie (International Ed. in English), 2025).

Target: T1, STAT4 Arg598Ala (Homo sapiens, UniProt Q14765, R598A)
T1 construct: 6xHis; made in house
T1 sequence (Q14765 1-748 R598A): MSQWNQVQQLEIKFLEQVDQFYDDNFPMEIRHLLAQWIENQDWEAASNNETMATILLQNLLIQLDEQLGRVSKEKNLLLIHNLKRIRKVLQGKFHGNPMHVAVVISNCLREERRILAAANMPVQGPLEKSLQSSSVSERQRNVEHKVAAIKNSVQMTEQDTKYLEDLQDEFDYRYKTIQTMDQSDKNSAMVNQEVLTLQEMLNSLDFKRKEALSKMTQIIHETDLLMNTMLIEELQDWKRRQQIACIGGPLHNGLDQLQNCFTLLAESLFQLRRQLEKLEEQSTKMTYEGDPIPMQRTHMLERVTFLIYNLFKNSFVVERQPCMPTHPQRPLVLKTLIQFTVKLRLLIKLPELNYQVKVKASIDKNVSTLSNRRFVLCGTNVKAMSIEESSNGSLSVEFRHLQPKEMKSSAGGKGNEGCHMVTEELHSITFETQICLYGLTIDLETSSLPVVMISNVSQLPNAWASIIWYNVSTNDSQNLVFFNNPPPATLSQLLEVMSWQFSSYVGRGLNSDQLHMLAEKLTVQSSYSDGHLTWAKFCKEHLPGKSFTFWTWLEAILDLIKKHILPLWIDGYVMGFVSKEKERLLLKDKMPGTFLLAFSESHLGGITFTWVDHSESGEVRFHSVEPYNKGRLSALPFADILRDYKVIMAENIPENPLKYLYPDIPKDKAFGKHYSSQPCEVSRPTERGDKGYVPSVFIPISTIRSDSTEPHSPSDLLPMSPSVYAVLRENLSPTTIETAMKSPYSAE
Experiment: Isothermal titration calorimetry (ITC), STAT4 Arg598Ala
Type: binding
Conditions: n = 4

O=P(O)(O)Oc1ccc(-c2ccc3ccccc3c2)cc1F [Compound 6m]
binding to STAT4 point mutant Arg598Ala (ITC): no heat release
